Assay results as given in US20130303562A1, “CHEMICAL AND RNAI SUPPRESSORS OF NEUROTOXICITY IN HUNTINGTON'S DISEASE” (priority 2010, published 2013).
“Also recorded” adds a separate entry of the source. Read-outs that look alike come from different tables or passages of the source.

Columns and labels:
[1] = tested on: Htt-Q138 expressing Drosophila primary neural cultures; experiment: Morphological analysis of small-molecule treated Htt-Q138 primary neural cultures versus Htt-Q15 controls; format: cell-based; details: for Morphology profiles of Q138 expressing neurons (effect in words): Htt-Q138 primary neural cultures, compared with Htt-Q15 controls
Method: Primary Cell Culture. Elav^c155-GAL4 virgins were collected en-masse and crossed to either UAS-Htt-Q138-mRFP^1, UAS-mCD8-GFP or UAS-HttQ15-mRFP^1, UAS-mCD8-GFP males to generate embryos for primary culture preparation.
Compound screening: Primary cultures were re-suspended directly in Shields and Sang M3 media (Sigma) supplemented with 10 U/mL penicillin, 10 μg/mL streptomycin, 200 ng/mL insulin, and 5% fetal bovine serum. […] The neuroblast density was 18,500 cells/well. The primary screen was carried out in duplicate and hits were validated with 12 additional replicate wells.
Microscopy: For high-content screening mature 7-day old cultures were imaged with an ImageXpress^MICRO robotic microscope (Molecular Devices, Sunnyvale, Calif.) using a 10× objective and FITC/Cy3 filter sets. […] Laser-based autofocusing was used to locate plate bottoms, and then image-based focusing used to resolve fluorescently labeled neurons over a 48 μm range. The GFP and mRFP channels were imaged in the same focal plane, with exposure times of 850 and 400 ms respectively. Three sites were imaged per well for each treatment group, and the screen was done in duplicate. For confocal microscopy of primary cultures, neuroblasts were plated on poly-L-lysine coated chambered cover slips (LabTekII, 0.8 cm^2/well) at 18,300 cells/well in 50 μL volume. Small molecules were added to cultures 24 hours after plating, incubated for 7 days, and then imaged with a Leica TCS-SP2 confocal LSM microscope.
Digital Image Analysis of High Content Screening Data Sets: Neuronal morphological analysis and Htt aggregate quantification for automated microscopy images was performed as previously described (Schulte et al., Wu et al.). In brief, Htt-Q138 aggregates were quantified as the total number of pixels/image with an intensity higher than an empirically set threshold. Statistical analysis was conducted using a two sample t-test. To quantify neuronal morphologies, cell body clusters (neuromeres) and neurites were extracted from images using our custom algorithms (Wu et al.). […] Absolute counts of neuromeres/bin were tabulated for all images. Neurite segment lengths were similarly clustered into three groups (short, medium, and long) using the K-means method and then quantified. Cell cluster and neurite counts were converted into percentages to control for any variation in cell number between wells arising from pipetting error. Mean neuromere area and neurite length for each image were also calculated to give a total of eight morphological metrics for image morphology quantification. For statistical analysis, p-values for each morphological feature were calculated using a two sample t-test (e.g. small neuromere feature of Htt-Q138 drug-treated cultures versus small neuromere feature of Htt-Q15 DMSO cultures). […] The combined statistic has a χ^2 distribution with 2k degrees of freedom under the joint null hypothesis. This method works well in cases where the evidence against the null-hypothesis is spread across different features. Excluded from analysis were compound-treated wells with <6 images, out-of-focus images, or images that lacked cell profiles altogether.

[2] = tested on: Htt138Q aggregate formation; experiment: Htt-Q138 aggregation-inhibition screening of small molecules in Drosophila primary neural cultures (automated microscopy); format: cell-based; details: for Htt-Q138 aggregate formation (effect in words): range of concentrations (56 μM, 5.6 μM); for Htt-Q138 aggregation (effect in words): Htt-Q138 primary neural cultures
Method: Primary Cell Culture. Elav^c155-GAL4 virgins were collected en-masse and crossed to either UAS-Htt-Q138-mRFP^1, UAS-mCD8-GFP or UAS-HttQ15-mRFP^1, UAS-mCD8-GFP males to generate embryos for primary culture preparation. Neuroblasts were isolated as described (Sepp et al., 2008).
Compound screening: Primary cultures were re-suspended directly in Shields and Sang M3 media (Sigma) supplemented with 10 U/mL penicillin, 10 μg/mL streptomycin, 200 ng/mL insulin, and 5% fetal bovine serum. […] of compounds from arrayed small-molecule libraries (NINDS Custom Collection 2, Prestwick) Collection, BIOMOL2 ICCB-Longwood Known Bioactives High Concentration, various concentration from 1-15 mM in DMSO) were applied to 50 μL of cultures 24 hours after plating on optical bottom 384-well plates (Corning 3712). The neuroblast density was 18,500 cells/well. The primary screen was carried out in duplicate and hits were validated with 12 additional replicate wells.
(§1) Microscopy: For high-content screening mature 7-day old cultures were imaged with an ImageXpress^MICRO robotic microscope (Molecular Devices, Sunnyvale, Calif.) using a 10× objective and FITC/Cy3 filter sets. Images were 1392×1040 pixels, or 897×670 micrometers. Laser-based autofocusing was used to locate plate bottoms, and then image-based focusing used to resolve fluorescently labeled neurons over a 48 μm range. The GFP and mRFP channels were imaged in the same focal plane, with exposure times of 850 and 400 ms respectively. Three sites were imaged per well for each treatment group, and the screen was done in duplicate. For confocal microscopy of primary cultures, neuroblasts were plated on poly-L-lysine coated chambered cover slips (LabTekII, 0.8 cm^2/well) at 18,300 cells/well in 50 μL volume. Small molecules were added to cultures 24 hours after plating, incubated for 7 days, and then imaged with a Leica TCS-SP2 confocal LSM microscope.
Digital Image Analysis of High Content Screening Data Sets: Neuronal morphological analysis and Htt aggregate quantification for automated microscopy images was performed as previously described (Schulte et al., Wu et al.). In brief, Htt-Q138 aggregates were quantified as the total number of pixels/image with an intensity higher than an empirically set threshold. Statistical analysis was conducted using a two sample t-test. To quantify neuronal morphologies, cell body clusters (neuromeres) and neurites were extracted from images using our custom algorithms (Wu et al.). […] Absolute counts of neuromeres/bin were tabulated for all images. Neurite segment lengths were similarly clustered into three groups (short, medium, and long) using the K-means method and then quantified. Cell cluster and neurite counts were converted into percentages to control for any variation in cell number between wells arising from pipetting error. Mean neuromere area and neurite length for each image were also calculated to give a total of eight morphological metrics for image morphology quantification. For statistical analysis, p-values for each morphological feature were calculated using a two sample t-test (e.g. small neuromere feature of Htt-Q138 drug-treated cultures versus small neuromere feature of Htt-Q15 DMSO cultures). The resultant morphological p-values for individual features were then integrated into a single p-value using the Fisher method (Fisher 1932) defined by the equation χ^2=−2Σi=1^k loge(pi), where k represents independent tests, pi is the p-value of the i-th feature. The combined statistic has a χ^2 distribution with 2k degrees of freedom under the joint null hypothesis. This method works well in cases where the evidence against the null-hypothesis is spread across different features. Excluded from analysis were compound-treated wells with <6 images, out-of-focus images, or images that lacked cell profiles altogether.

[3] = tested on: HD larvae (Elav^c155-GAL4; UAS-Htt-Q138/+); experiment: In vivo rescue: viability of HD larvae after 5-day drug dosing in liquid culture; parameters: species or system Drosophila; details: larvae reared in liquid culture, 5-day dosing, compared to DMSO-treated controls
Method: In vivo Rescue studies: For small molecule in vivo rescue studies, Elav^c155; UAS-Htt-Q138-mRFP^1, UAS-mCD8-GFP/+1st instar larvae were collected en-masse and dispensed into liquid yeast media (10 larvae/well) containing therapeutic agents at three different concentrations as described in the results (n=8 replicas/concentration). Cultures were reared at 21° C. and larval viability was assessed after 5 days and the mean number of living Htt138Q larvae (i.e. GFP^+, Htt138QmRFP^+, and mobile) was tabulated, and expressed as a percentage of total larvae/well. For genetic rescue studies with lkb1, two Htt138Q strains were utilized: a strong expressing line, UAS-Htt138QmRFP^1 which is pharate lethal when crossed to Elav^c155, and a weaker expressing line, UAS-Htt138QmRFP^2 which survives to adulthood and is viable for a number of weeks. Using the strong line, pharate lethality at 25° C. was calculated after lkb1 (lkb1^4B1-11 and lkb1^4A4-2 alleles) was introduced into an Elav^c155, UAS-Htt/+background. Lkb1^4B1-11 is a premature truncation allele (Q98>Stop), and lkb1^4A4-2 is an EMS null allele (589 b.p. deletion removing 150 b.p. of the 5′ UTR, the start codon and the beginning of the open reading frame). For Top1 in vivo analysis, Elav^c155, Top^112 recombinants were generated and crossed to UAS-Htt138QmRFP^1.
To further examine the RNAi/small molecule screen hits, we assayed in vivo efficacy by testing their ability to rescue lethality in our Drosophila HD model. […] Specific inhibitors of Lkb1 were not available for in vivo testing.

[4] = tested on: Htt-Q138 expressing primary neural cultures; experiment: In vitro validation of screen hits by confocal microscopy of primary cultures on glass coverslips; format: cell-based, Drosophila; details: for Aggregate formation (confocal): 56 μM, Htt-Q138 expressing cultures
Source text: FIG. 4. In vitro validation of small molecule screen hits. Confocal microscopy images of primary cultures plated on glass coverslips and treated with either DMSO (A,B) or test compounds (C,D). […] HttQ15 is soluble and fills most neurite processes. […] (E) Quantification of altered Htt138Q distribution following Camptothecin treatment.
as §1

[5] = Solubility / precipitation in cultures; format: physicochemical; details: liquid cultures
NP-3 mouse HD model = details: cited from earlier work

Q: Which results are given for `CCC1(O)C(=O)OCc2c1cc1n(c2=O)Cc2cc3cc(O)ccc3nc2-1` (stereo not shown) [10-OH-Camptothecin]?
A: Dystrophic morphology profiles (effect in words) [1]: partially reverting dystrophic morphology profiles; Morphology profiles of Q138 expressing neurons (effect in words) [1]: Rescue of Htt-Q138 mutant morphology; Htt-Q138 aggregate formation (effect in words) [2]: rescue aggregate formation; Viability of Htt-Q138 expressing larvae / rescue of Htt-Q138 lethality ([3]; listed as 10-Hydroxycamptothecin): increased larval longevity in vivo, but to a lesser extent than Rapamycin; also recorded: more efficacious than Camptothecin; Aggregate formation (confocal) [4]: reduces aggregate formation

Q: With `O=C(Nc1ccc(Br)cc1)c1cccc(S(=O)(=O)Nc2ccc(Br)cc2)c1` [C2-8] as the compound, how does the “Neurotoxic properties / morphological defects in cultures” value [1] read?
A: The value was “reduced axon outgrowth, neuromere size, and suppressed GFP expression”.

Q: And the “Morphology profiles of Q138 expressing neurons (effect in words)” value [1]?
A: The value was “none reverted the morphology profiles of Q138 expressing neurons towards normal”.

Q: And the “Htt-Q138 aggregation (effect in words)” value [2]?
A: The value was “reduced Htt-Q138 aggregation”.

Q: What does the source list for `CC[C@@]1(O)C(=O)OCc2c1cc1n(c2=O)Cc2cc3ccccc3nc2-1` [Camptothecin]?
A: Neurotoxic properties / morphological defects in cultures ([1]; primary neural cultures): did not observe morphological defects; Dystrophic morphology profiles (effect in words) ([1]; range of concentrations (56 μM, 5.6 μM)): partially reverting dystrophic morphology profiles; Htt-Q138 aggregate formation (effect in words) [2]: rescue aggregate formation; Precipitation when added to cultures [5]: readily precipitates when added to cultures; Viability of Htt-Q138 expressing larvae / rescue of Htt-Q138 lethality [3]: increased larval longevity in vivo, but to a lesser extent than Rapamycin; Aggregate formation (confocal) [4]: reduces aggregate formation; Number of Htt138Q pixels/neuronal area (Htt-RFP pixels/neuromere and neurite GFP pixels) ([4]; mutant cultures, p<0.05, n=4): increase

Q: What does the source list for `O=C1Nc2ccc(I)cc2/C1=C/c1cc(Br)c(O)c(Br)c1` [GW5074]?
A: Neurotoxic properties / morphological defects in cultures [1]: reduced axon outgrowth, neuromere size, and suppressed GFP expression; Morphology profiles of Q138 expressing neurons (effect in words) [1]: none reverted the morphology profiles of Q138 expressing neurons towards normal; Htt-Q138 aggregation (effect in words) [2]: reduced Htt-Q138 aggregation; also recorded: inhibited mutant Hu aggregate formation; Striatal degeneration (NP-3 mouse HD model): reduced striatal degeneration

Q: With `C=C1[C@@H](O)[C@@H]2O[C@]3(CC[C@H](/C=C/[C@@H](C)[C@@H]4CC(C)=C[C@@]5(O[C@H](C[C@@](C)(O)C(=O)O)CC[C@H]5O)O4)O3)CC[C@H]2O[C@@H]1[C@@H](O)C[C@H](C)[C@H]1O[C@@]2(CCCCO2)CC[C@H]1C` [Okadaic acid] as the compound, how does the “Morphology profiles of Q138 expressing neurons (effect in words)” value [1] read?
A: The value was “exacerbated the mutant Htt-Q138 mutant morphology”.

Q: And the “Htt-Q138 aggregation (effect in words)” value [2]?
A: The value was “suppress Htt-Q138 aggregation”.

Q: Which “Neurotoxic properties / morphological defects in cultures” value [1] does the source give for `C[C@@H]1C[C@H]2O[C@@H]2/C=C\C=C\C(=O)Cc2c(Cl)c(O)cc(O)c2C(=O)O1` [Radicicol] here?
A: The value was “reduced axon outgrowth, neuromere size, and suppressed GFP expression”.

Q: And the “Morphology profiles of Q138 expressing neurons (effect in words)” value [1]?
A: The value was “none reverted the morphology profiles of Q138 expressing neurons towards normal”.

Q: What about the “Htt-Q138 aggregation (effect in words)” value [2] of the same compound?
A: Its value is “reduced Htt-Q138 aggregation”.

Q: With `CO[C@H]1C[C@@H]2CC[C@@H](C)[C@@](O)(O2)C(=O)C(=O)N2CCCC[C@H]2C(=O)O[C@H]([C@H](C)C[C@@H]2CC[C@@H](O)[C@H](OC)C2)CC(=O)[C@H](C)/C=C(\C)[C@@H](O)[C@@H](OC)C(=O)[C@H](C)C[C@H](C)/C=C/C=C/C=C/1C` [Rapamycin] as the compound, how does the “Neurotoxic properties / morphological defects in cultures” value ([1]; primary neural cultures) read?
A: The value was “reduced axon outgrowth, neuromere size, and suppressed GFP expression”.
